ChEMBL document CHEMBL3822396 (J Med Chem, 2016)
Calls of active or inactive are those of the source. No cut-off for these calls is given here.

Columns and labels:
[1] = Half life in C57BL/6 mouse at 2 mg/kg, po or 1 mg/kg, iv by LC-MS/MS analysis; format: ADME, organism-based; settings: in vivo
[2] = Oral bioavailability in C57BL/6 mouse at 2 mg/kg by LC-MS/MS analysis; format: ADME, organism-based; settings: in vivo
Mus musculus [3] = assay: Antiinflammatory activity in C57Bl/6 mouse assessed as inhibition of FK156-induced serum KC level at 0.1 to 100 mg/kg, po for 15 mins prior to FK156-challenge measured after 2.5 hrs by FACS analysis; format: functional, organism-based
Mus musculus [4] = assay: Antiinflammatory activity in C57Bl/6 mouse assessed as inhibition of LPS-induced serum KC level at 10 mg/kg, po for 15 mins prior to LPS-challenge measured after 2.5 hrs; format: functional, organism-based
Intestinal mucosa [5] = assay: Inhibition of TNFalpha production in intestinal mucosa derived from Crohn's disease patient measured after 24 hrs by sandwich ELISA; format: functional, tissue-based; settings: Homo sapiens
Intestinal mucosa [6] = assay: Inhibition of IL6 production in intestinal mucosa derived from ulcerative colitis patient measured after 24 hrs by sandwich ELISA; format: functional, tissue-based; settings: Homo sapiens
Mus musculus [7] = assay: Antiinflammatory activity in Balb/c mouse model of L18-MDP-induced inflammatory peritonitis assessed as inhibition of serum KC level into peritoneal cavity administered orally for 15 mins prior to L18-MDP-challenge measured after 4 hrs; format: functional, organism-based
[8] = target: Protein-tyrosine kinase 6 (Homo sapiens) (UniProt Q13882); assay: Inhibition of human full length N-terminal GST-tagged BRK expressed in baculovirus expression system at 1 uM
[9] = target: T1, Aurora kinase A (Homo sapiens) (UniProt O14965); assay: Inhibition of human full length N-terminal GST-tagged aurora-a expressed in baculovirus expression system at 1 uM
T1 sequence (whole entry): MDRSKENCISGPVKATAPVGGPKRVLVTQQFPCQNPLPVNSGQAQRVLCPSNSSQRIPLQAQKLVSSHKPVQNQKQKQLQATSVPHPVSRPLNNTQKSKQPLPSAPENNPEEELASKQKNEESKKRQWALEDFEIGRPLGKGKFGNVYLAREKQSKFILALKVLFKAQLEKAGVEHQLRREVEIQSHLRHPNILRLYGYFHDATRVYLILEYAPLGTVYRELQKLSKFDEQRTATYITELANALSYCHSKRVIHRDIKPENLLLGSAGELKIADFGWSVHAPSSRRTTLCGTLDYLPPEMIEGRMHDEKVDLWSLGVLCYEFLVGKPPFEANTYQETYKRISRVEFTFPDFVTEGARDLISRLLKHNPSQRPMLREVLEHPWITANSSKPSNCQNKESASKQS

[10] = target: T2, Receptor-interacting serine/threonine-protein kinase 3 (Homo sapiens, UniProt Q9Y572); assay: Inhibition of RIPK3 (unknown origin) preincubated for 10 mins followed by addition of fluorescent-labeled 2-Methyl-5-(2-propen-l-yloxy)aniline measured after 10 mins by fluorescence polarization assay
Target sequence in this assay (Q9Y572 whole entry): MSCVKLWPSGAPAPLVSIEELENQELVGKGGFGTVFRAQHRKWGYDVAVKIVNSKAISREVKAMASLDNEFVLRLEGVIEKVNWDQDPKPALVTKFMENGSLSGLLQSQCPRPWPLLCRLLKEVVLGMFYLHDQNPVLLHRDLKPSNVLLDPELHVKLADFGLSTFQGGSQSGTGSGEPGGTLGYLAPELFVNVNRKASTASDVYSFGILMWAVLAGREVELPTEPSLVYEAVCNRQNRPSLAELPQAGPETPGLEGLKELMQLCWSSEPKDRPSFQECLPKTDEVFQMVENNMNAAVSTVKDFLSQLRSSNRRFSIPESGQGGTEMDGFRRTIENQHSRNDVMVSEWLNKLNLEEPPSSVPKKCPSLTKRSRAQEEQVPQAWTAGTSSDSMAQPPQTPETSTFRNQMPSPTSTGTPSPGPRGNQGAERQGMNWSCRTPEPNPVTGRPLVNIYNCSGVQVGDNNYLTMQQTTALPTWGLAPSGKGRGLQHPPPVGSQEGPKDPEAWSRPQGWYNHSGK

[11] = target: T2, Receptor-interacting serine/threonine-protein kinase 3; assay: Inhibition of RIPK3 (unknown origin) in HEK-293 cells assessed as necroptic cell death at 10 uM by cell-based assay; settings: HEK293
Target sequence in this assay (Q9Y572 whole entry, looked up): as the sequence (Q9Y572 whole entry) above

[12] = target: Toll-like receptor 2 (Homo sapiens) (UniProt O60603); assay: Activation of TLR2 receptor in human monocytes assessed as inhibition of Pam2Csk4-stimulated TNF-alpha production preincubated for 30 mins prior to Pam2Csk4 stimulation at 1 uM measured after 6 hrs by immunoassay; format: cell-based
[13] = target: T3, Toll-like receptor 7 (Homo sapiens) (UniProt Q9NYK1); assay: Activation of TLR7 receptor in human monocytes assessed as inhibition of gardiquimod-stimulated IL8 production preincubated for 30 mins prior to gardiquimod stimulation at 1 uM measured after 6 hrs by immunoassay; format: cell-based
T3 sequence (whole entry): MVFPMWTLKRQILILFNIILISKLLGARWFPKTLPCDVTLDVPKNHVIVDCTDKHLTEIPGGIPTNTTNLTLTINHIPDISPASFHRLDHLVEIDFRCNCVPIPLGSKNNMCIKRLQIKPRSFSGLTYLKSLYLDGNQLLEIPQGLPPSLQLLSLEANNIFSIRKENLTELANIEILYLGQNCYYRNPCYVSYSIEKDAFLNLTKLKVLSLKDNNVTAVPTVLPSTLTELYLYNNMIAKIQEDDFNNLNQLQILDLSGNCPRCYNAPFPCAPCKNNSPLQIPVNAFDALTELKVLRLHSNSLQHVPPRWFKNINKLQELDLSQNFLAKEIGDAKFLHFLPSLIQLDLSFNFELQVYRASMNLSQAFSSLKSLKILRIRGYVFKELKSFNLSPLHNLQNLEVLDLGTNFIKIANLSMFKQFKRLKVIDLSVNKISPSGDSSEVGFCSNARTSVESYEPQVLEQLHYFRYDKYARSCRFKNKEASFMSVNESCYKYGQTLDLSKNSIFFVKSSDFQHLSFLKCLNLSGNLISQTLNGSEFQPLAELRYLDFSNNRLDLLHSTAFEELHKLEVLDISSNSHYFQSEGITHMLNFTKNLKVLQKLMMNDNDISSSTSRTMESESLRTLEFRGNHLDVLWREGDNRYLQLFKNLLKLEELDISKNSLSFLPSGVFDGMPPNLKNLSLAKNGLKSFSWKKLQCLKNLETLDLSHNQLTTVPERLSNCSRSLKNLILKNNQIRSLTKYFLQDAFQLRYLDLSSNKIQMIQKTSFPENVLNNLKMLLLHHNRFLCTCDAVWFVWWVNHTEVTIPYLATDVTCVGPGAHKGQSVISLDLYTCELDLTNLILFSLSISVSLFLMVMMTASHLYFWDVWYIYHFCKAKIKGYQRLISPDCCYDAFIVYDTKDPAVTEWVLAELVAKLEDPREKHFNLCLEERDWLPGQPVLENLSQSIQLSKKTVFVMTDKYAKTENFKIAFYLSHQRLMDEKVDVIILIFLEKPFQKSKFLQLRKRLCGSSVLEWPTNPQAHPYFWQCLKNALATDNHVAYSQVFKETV

[14] = Clearance in Sprague-Dawley rat at 2 mg/kg, po or 1 mg/kg, iv by LC-MS/MS analysis; format: ADME, organism-based; settings: in vivo
[15] = Volume of distribution at steady state in Sprague-Dawley rat at 2 mg/kg, po or 1 mg/kg, iv by LC-MS/MS analysis; format: ADME, organism-based; settings: in vivo, read-out: Vdss
[16] = Fraction unbound in Sprague-Dawley rat blood at 2 mg/kg, po or 1 mg/kg, iv; format: ADME, organism-based; settings: whole blood
[17] = target: Mitogen-activated protein kinase 14 (Homo sapiens, UniProt Q16539)
Chain of Mitogen-activated protein kinase 14 (Q16539 whole entry): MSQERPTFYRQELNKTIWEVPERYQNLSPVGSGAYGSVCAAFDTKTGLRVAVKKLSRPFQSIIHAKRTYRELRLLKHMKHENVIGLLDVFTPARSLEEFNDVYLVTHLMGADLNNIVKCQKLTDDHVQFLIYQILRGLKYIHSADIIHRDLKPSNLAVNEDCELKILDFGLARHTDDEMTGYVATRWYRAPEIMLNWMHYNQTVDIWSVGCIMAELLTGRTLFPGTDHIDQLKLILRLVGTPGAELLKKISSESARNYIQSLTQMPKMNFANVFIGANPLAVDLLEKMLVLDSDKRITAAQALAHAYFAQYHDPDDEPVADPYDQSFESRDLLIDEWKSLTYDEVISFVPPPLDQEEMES

Chain of Toll-like receptor 2 (Homo sapiens) (O60603 whole entry): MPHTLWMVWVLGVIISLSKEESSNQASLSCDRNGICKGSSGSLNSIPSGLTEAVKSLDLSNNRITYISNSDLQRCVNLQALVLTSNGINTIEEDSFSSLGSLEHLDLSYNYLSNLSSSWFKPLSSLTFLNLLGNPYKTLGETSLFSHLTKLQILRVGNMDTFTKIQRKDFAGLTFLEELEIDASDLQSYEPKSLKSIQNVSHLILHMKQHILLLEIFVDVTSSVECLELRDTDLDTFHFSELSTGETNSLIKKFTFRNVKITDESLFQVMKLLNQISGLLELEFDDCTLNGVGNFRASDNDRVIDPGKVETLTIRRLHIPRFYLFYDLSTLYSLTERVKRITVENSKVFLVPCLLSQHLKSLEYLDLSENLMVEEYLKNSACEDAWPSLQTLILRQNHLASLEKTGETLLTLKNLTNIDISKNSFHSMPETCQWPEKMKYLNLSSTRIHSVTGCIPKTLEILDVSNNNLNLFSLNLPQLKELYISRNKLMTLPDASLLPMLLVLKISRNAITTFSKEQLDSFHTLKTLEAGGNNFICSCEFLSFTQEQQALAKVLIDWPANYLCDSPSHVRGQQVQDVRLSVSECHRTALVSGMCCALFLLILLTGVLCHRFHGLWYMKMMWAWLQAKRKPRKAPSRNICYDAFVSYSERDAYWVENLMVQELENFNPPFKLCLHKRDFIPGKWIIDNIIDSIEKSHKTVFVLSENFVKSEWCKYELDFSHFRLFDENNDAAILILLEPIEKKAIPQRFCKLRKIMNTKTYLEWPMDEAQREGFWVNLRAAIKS
Chain of Protein-tyrosine kinase 6 (Homo sapiens) (Q13882 whole entry, looked up): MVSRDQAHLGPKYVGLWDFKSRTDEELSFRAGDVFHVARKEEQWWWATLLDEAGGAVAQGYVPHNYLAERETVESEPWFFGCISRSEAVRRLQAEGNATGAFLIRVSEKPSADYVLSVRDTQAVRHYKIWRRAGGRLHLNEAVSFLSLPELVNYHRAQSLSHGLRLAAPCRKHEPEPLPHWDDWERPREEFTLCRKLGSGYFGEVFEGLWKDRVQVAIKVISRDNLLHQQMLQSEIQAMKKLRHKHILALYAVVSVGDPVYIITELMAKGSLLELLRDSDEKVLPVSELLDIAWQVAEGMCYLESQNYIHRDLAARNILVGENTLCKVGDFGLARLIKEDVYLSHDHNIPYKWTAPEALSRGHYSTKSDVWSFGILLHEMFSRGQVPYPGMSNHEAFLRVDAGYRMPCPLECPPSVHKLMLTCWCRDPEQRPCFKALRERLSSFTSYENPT

For CC(C)(C)S(=O)(=O)c1ccc2nccc(Nc3n[nH]c4ccc(F)cc34)c2c1, the half-life [1] was 2.1 h, the bioavailability [2] was 34% and the inhibition (Mus musculus [3]) was “Active”. The inhibition (Mus musculus [4]) was “inactive”, the inhibition (Intestinal mucosa [5]) was “Dose-dependent effect” and the inhibition (Intestinal mucosa [6]) was “Dose-dependent effect”. The Activity (Mus musculus [7]) was “Dose-dependent effect”, the inhibition [8] was 30% and the inhibition [9] was 30%. The IC50 [10] was 16 nM, the inhibition [11] was “inactive” and the inhibition [12] was “Active”. The inhibition [13] was “Active”, the clearance [14] was 15 mL/min/kg and the Vd [15] was 2 L/kg. For the same molecule, the fraction unbound [16] was 0.026 and the IC50 [17] was 5120 nM.
